Experiments:
[1] = set-up: species or system mice
Protocol: Clearance kinetics in each organ was determined by exponential curve fitting. The time-integrated activity concentration (TIAC) was obtained by integration of this exponential curve folded with the decay curve of ^111In and ^177Lu.Mouse dosimetry was calculated for both ^177Lu and ^111In using the TIAC and the 25 g RADAR mouse absorbed dose rates per unit activity S for each source and target organ combination ([Keenan et al., 2010]; [Konijnenberg et al., 2014]).

CCK2R = tested on: CCK2R; set-up: method as in Aloj et al., 2011; Kolenc Peitl et al., 2015; conditions: ref Aloj et al., 2011; Kolenc Peitl et al., 2015; cited from earlier work
[2] = tested on: Crl:NMRI (SPF) female mice; test: Acute intravenous toxicity of CP04 in mice; type: in vivo; conditions: 178.5 μg/kg body weight iv
From the text: For acute intravenous toxicity studies Crl:NMRI (SPF) female mice provided by Charles River Laboratories (Germany) of 7–9 weeks of age and a body weight of 26–33 g were used. For extended acute single dose toxicity study in rats, 45 female and 45 male Wistar Hannover RccHan™ rats were used purchased from Harlan Laboratories, B.V. (The Netherlands). Animals were […] of age and the body weights were 195–235 g for males and 164–199 g for females. For in vivo stability tests and biodistribution/dosimetry studies healthy male Swiss albino mice from NCSR “Demokritos” Animal House were used, of 8–10 weeks of age and a body weight of 20–25 g. […]
The CP04 precursor was dissolved in phosphate buffered saline (PBS pH 7.4) and was administered at a dose of 178.5 μg/kg body weight and a dose volume of 5 mL/kg body weight into the caudal vein of two groups of three mice (Acute Intravenous Toxicity Study in Mice, Harlan Laboratories Study #D04314). […] Mortality, viability and clinical signs were recorded. […] Mortality/viability was recorded within the first 30 min and approximately 1, 2, 3 and 5 h after administration on test day 1 (with the clinical signs) and twice daily during days 2–15. Body weights were recorded on test day 1 (prior to administration) and on test days 8 and 15. […]

[3] = tested on: Wistar Hannover RccHan rats; test: Extended acute single dose intravenous (bolus) toxicity study in rats; type: in vivo
From the text: For acute intravenous toxicity studies Crl:NMRI (SPF) female mice provided by Charles River Laboratories (Germany) of 7–9 weeks of age and a body weight of 26–33 g were used. For extended acute single dose toxicity study in rats, 45 female and 45 male Wistar Hannover RccHan™ rats were used purchased from Harlan Laboratories, B.V. (The Netherlands). Animals were […] of age and the body weights were 195–235 g for males and 164–199 g for females. For in vivo stability tests and biodistribution/dosimetry studies healthy male Swiss albino mice from NCSR “Demokritos” Animal House were used, of 8–10 weeks of age and a body weight of 20–25 g. For the CCK2R-expressing tumour model, male SCID mice from NCSR “Demokritos” Animal House were used, of 6 weeks of age on arrival day and a body weight of 20 ± 2 g.
The study was designed according to the microdosing concept as described in ICH guideline M3 (R2) (“Note for guidance on non-clinical safety studies for the conduct of human clinical trials and marketing authorization for pharmaceuticals” (CPMP/ICH/286/95)). In brief, 90 rats were distributed into three dose groups, each containing fifteen animals per sex (Table 1). The animals from Group 1 received only PBS, serving as controls, while groups II and III received the CP04 solution by single intravenous (bolus) injection at a low (89 μg/kg body weight: Group 2) and a high dose (890 μg/kg body weight: Group 3). A 24-h observation period followed (Allocation A), except for five animals per sex from each group for which treatment was followed by an additional 14-day treatment-free recovery period (Allocation B).
At day 2 blood samples were withdrawn from Allocation-A animals for haematology, clinical biochemistry and samples for urinary analyses were collected. These animals were necropsied on the same day and histological examinations were performed on an extended set of organs (adrenal glands, kidneys, liver, pancreas, sternum (including bone marrow), small intestine, stomach, thyroid/parathyroid glands and gross lesions). The animals from Allocation-B remained untreated for the following 14 days, but on day 15 underwent the same procedure described above (Extended Acute Intravenous (Bolus) Toxicity Study in Rats, Harlan Study #S47364).

Structure (SMILES) | Absorbed dose per injected activity, Bone [1] | Absorbed dose per injected activity, Kidneys [1] | Absorbed dose per injected activity, Large intestine [1] | Absorbed dose per injected activity, Liver [1] | Absorbed dose per injected activity, Lungs [1] | Absorbed dose per injected activity, Pancreas [1] | Absorbed dose per injected activity, Small intestine [1] | Absorbed dose per injected activity, Spleen [1] | Absorbed dose per injected activity, Stomach wall [1] | Absorbed dose per injected activity, Total body [1] | CCK2R-affinity, IC50 (CCK2R) | macroscopic findings at necropsy ([2]; female mice) | survival and systemic signs of toxicity ([2]; two groups of three female mice, 14 days observation) | maximum recommended starting dose (MRSD) for a first-in-human clinical trial ([3]; HED with safety factor of 10) | human equivalent dose (HED) ([3]; NOAEL × rat km/human km = 89 μg/kg × 6/37) | reticulocyte count ([3]; male rats, 14 days after single bolus 890 μg/kg body weight) | mean food consumption and body weight gain ([3]; rats, single bolus 890 μg/kg body weight) | NOAEL initially established, based on pathological examination ([3]; rats, single intravenous bolus) | no-observed-adverse-effect-level (NOAEL) ([3]; rats, single intravenous bolus, eventually set value) | survival and clinical signs ([3]; rats, single iv bolus 89 or 890 μg/kg, 24-h study period)
CSCC[C@H](NC(=O)[C@H](Cc1c[nH]c2ccccc12)NC(=O)CNC(=O)[C@H](Cc1ccc(O)cc1)NC(=O)[C@H](C)NC(=O)[C@@H](CCC(=O)O)NC(=O)[C@@H](CCC(=O)O)NC(=O)[C@@H](CCC(=O)O)NC(=O)[C@@H](CCC(=O)O)NC(=O)[C@@H](CCC(=O)O)NC(=O)[C@@H](CCC(=O)O)NC(=O)CN1CCN(CC(=O)O)CCN(CC(=O)O)CCN(CC(=O)O)CC1)C(=O)N[C@@H](CC(=O)O)C(=O)N[C@@H](Cc1ccccc1)C(N)=O [^177Lu-CP04, metal not drawn] | 51 mGy/MBq | 400 mGy/MBq | 36 mGy/MBq | 7 mGy/MBq | 12 mGy/MBq | 16 mGy/MBq | 36 mGy/MBq | 9 mGy/MBq | 86 mGy/MBq | 19 mGy/MBq |  |  |  |  |  |  |  |  |  | 
CSCC[C@H](NC(=O)[C@H](Cc1c[nH]c2ccccc12)NC(=O)CNC(=O)[C@H](Cc1ccc(O)cc1)NC(=O)[C@H](C)NC(=O)[C@@H](CCC(=O)O)NC(=O)[C@@H](CCC(=O)O)NC(=O)[C@@H](CCC(=O)O)NC(=O)[C@@H](CCC(=O)O)NC(=O)[C@@H](CCC(=O)O)NC(=O)[C@@H](CCC(=O)O)NC(=O)CN1CCN(CC(=O)O)CCN(CC(=O)O)CCN(CC(=O)O)CC1)C(=O)N[C@@H](CC(=O)O)C(=O)N[C@@H](Cc1ccccc1)C(N)=O [CP04, DOTA-(DGlu)6-Ala-Tyr-Gly-Trp-Met-Asp-Phe-NH2] |  |  |  |  |  |  |  |  |  |  | lower nM range | No macroscopic findings | All animals survived until the end of the study with no systemic signs of toxicity evident | 1.4 µg/kg | 14.4 µg/kg | marked decrease | moderate decrease | 890 μg/kg body weight | 89 μg/kg body weight | All animals survived the 24-h study period with no clinical signs being recorded
